From US20020151678A1, “Prophylaxis and therapy of acquired immunodeficiency syndrome” (Board of Regents, The University of Texas System., priority 1987, published 2002) come the findings set out here.

Entries after “also recorded” stand apart in the source; their conditions may differ.

In one test the test system is BALB/c mice. Nature of the test: ELISA for anti-peptide antibody response in sera of immunized BALB/c mice. Conditions: high molecular weight (multimer) forms. The format is in vivo.
For test [1], the system named is native HIV envelope protein gp160. Conditions: disulfide (di-Cys) polymeric form. From the text: FIG. 6 contains two panels of graphs that illustrate B6C3 F1 mouse PLN cell proliferation by ^3H-TdR incorporation as described before using varying concentrations of peptide multimer and gp120 as antigens. […] PPD and unrelated peptide were used as controls. A further discussion relating to FIGS. 6-8 is found hereinafter.
The cells were harvested onto filter strips and ^3H-TdR incorporation was monitored.
T cell proliferation measured by ^3H-TdR incorporation, was also similarly assayed as a function of the T cell antigen concentration, using various amounts of native gp120 or gp160 as one control, and PPD as another control. PLN from B6C3 F1 mice were used in these studies.

As for FLGFLGAAGSTMGAASLTLTVQANQ [Peptide 63], the “anti-peptide antibody response (in words)” value in the test with BALB/c mice is listed as “very low to negligible amounts of anti-peptide antibodies; also recorded: do not stimulate anti-peptide antibody production”. The “T cell response directed against the corresponding peptide and native HIV envelope protein gp160” value (from here on “T cell response directed”) in test [1] is “strong T cell response”.
For “GTGPCTNVSTVQC [Peptide 116, gp160 CR-2, residues 240-252]”, in the test on BALB/c mice, the “anti-peptide antibody response (in words)” value is reported as “very low to negligible amounts of anti-peptide antibodies”.
The same measure, in the same setting: the value for “LWDQSLKPCVKLT [Peptide 111, gp160 CR-1, residues 118-131]” was “very low to negligible amounts of anti-peptide antibodies”.
On to SVITQACSKVSFE [Peptide 113], for which, in the test with BALB/c mice, the “anti-peptide antibody response (in words)” value is “very low to negligible amounts of anti-peptide antibodies; also recorded: do not stimulate anti-peptide antibody production”. Also, the “T cell response directed” value in test [1] is on record as “strong T cell response”.
For VYYGVPVWKEA [Peptide 104] the same measures were “very low to negligible amounts of anti-peptide antibodies; also recorded: do not stimulate anti-peptide antibody production” and “strong T cell response”.
As to YLRDQQLLGIWGC [Peptide 61], the “anti-peptide antibody response (in words)” value in the test on BALB/c mice was “very low to negligible amounts of anti-peptide antibodies; also recorded: do not stimulate anti-peptide antibody production”. For the same sequence, the “T cell response directed” value in test [1] is listed as “strong T cell response”.
